In brackets after ≈: the same amount, converted by molar mass. Like-named read-outs stand apart in the source and are kept apart here. Each block holds one compound with its values, some of them ahead of it. Residues, ends and D or L forms follow the SMILES beside them.
Experiments:
E. coli K-12 MG1655 = test: Resistance development assay (serial passage), E. coli; type: cell-based, Escherichia coli; conditions: serial passage at sub-MIC in CAMHB, 32 days
Source text: (§1) Bacteria (E. coli K-12 MG1655 and S. aureus ATCC 29213 and SO-SAU19-1) were serial passaged in CAMHB as described by [Silverman et al. (2001)] with some small modifications.

E. coli [1] = test: microbe, parasite or virus in culture; conditions: for MIC: Escherichia coli
Method: (§2) Briefly, bacterial colonies from blood agar plates were suspended and grown in Cation-Adjusted Mueller-Hinton Broth (CAMHB, […] Ca^2+, […] Mg^2+). The bacterial suspension was adjusted to 0.5 McFarland standard (∼1 × 10^8 colony-forming units (CFU)/ml) and serial diluted 1:200 in CAMHB (∼5 × 10^5 CFU/mL). […] The suspension was plated out on blood agar plates to confirm the CFU/ml. Both the microtiter plates and the blood agar plates were incubated at 37°C for 24 h.

E. faecium = test: microbe, parasite or virus in culture; conditions: for MIC: Enterococcus faecium
Method: as §2

E. cloacae = test: microbe, parasite or virus in culture; conditions: Enterobacter cloacae, 24 h
Method: as §2

K. pneumoniae = test: microbe, parasite or virus in culture; conditions: for MIC: Klebsiella pneumoniae
Method: as §2

P. aeruginosa = test: microbe, parasite or virus in culture; conditions: for MIC: Pseudomonas aeruginosa
Method: as §2

S. aureus = test: microbe, parasite or virus in culture; conditions: Staphylococcus aureus
Method: as §2

A. baumannii = test: microbe, parasite or virus in culture; conditions: for MIC: Acinetobacter baumannii
Method: as §2

[2] = tested on: S. aureus ATCC 29213 and SO-SAU19-1; type: cell-based, Staphylococcus aureus
Source text: as §1

E. faecalis = test: microbe, parasite or virus in culture; conditions: for MIC: Enterococcus faecalis
Method: as §2

[3] = tested on: S. epidermidis MRSE (SO-SEP9-1); conditions: SO-SEP9-1, 24 h
Method: as §2

E. coli [4] = test: Rifampicin (RifR) mutagenesis assay after UV-C; type: cell-based, Escherichia coli
Method: The rifampicin (Rif^R) mutagenesis assay was performed as described ([Nedal et al., 2020]). Briefly, an overnight culture of E. coli was diluted 1:1,000 and grown until an OD600 of 0.01. APIM-peptides (20 μg/ml) were added to LB media with glass beads (for uniform distribution of APIM-peptides) and incubated for 30 min at 37°C. The pellets were next collected, resuspended in 500 μl PBS, and exposed to UV-C (20 mJ/cm^2) in a six-well plate at 4°C. The unexposed bacteria (-UV) were otherwise handled exactly like the UV-exposed bacteria. Next, the cells were resuspended in LB media and incubated in a rotary shaker at 37°C at 250 rpm for 2 h before being harvested, diluted, and plated on LB with soft agar with and without rifampicin (100 μg/ml). Mutation frequency, Rif^R/10^8, is obtained as follows: (number of colonies on the rifampicin plate (Rif^R)/(number of colonies on LB plates without antibiotics), per milliliter of bacterial suspension. […]
mutagenesis in E. coli more efficiently than the other peptide variants.
Increase in mutation frequencies after treatment with UV-C (20 mJ/cm2) relative to spontaneous mutations frequencies using the RifR assay were determined. This increase is set to 100% for untreated control, and % reduction after addition of peptides 1-5 (20 μg/mL) are shown. Mean ± SD from three independent experiments. * p<0.05, ** p<0.005

E. coli [5] = test: Growth inhibition assay (OD600 over 24 h); type: cell-based, Escherichia coli; design: Reduction of viability E. coli (60 μg/ml): key to the marks not given beside the values; conditions: 60 μg/ml peptide, LB medium, OD600 every hour over 24 h, relative to untreated control
Method: An overnight culture of Escherichia coli was diluted 1:100 in Luria-Bertani (LB) medium and allowed to grow until an optical density (OD) at 600 nm (OD600) of 0.06–0.1. APIM-peptides were prepared by serial dilution in Milli-Q H2O and kept at 4°C. Fresh LB medium (60 μl) was added to a flat-bottom microtiter plate. The bacterial suspension was diluted 1:100 in LB, and 75 μl of this suspension was added to the wells. Finally, 15 μl of APIM-peptide solution (to final concentrations 60, 120, and 240 μg/ml) or distilled water (positive control) was added to the wells, reaching a total volume of 150 μl per well. Data are presented only for the dose that separated the effect of the different peptides, i.e., 60 μg/ml. A blank sterile medium was used as negative control. The plates were incubated with shaking at 510 rpm at 37°C inside a plate reader (TECAN, Spark®), and OD was read every hour over a period of 24 h.
The MIC for E. coli in LB medium is higher than that in CAMHB; thus, concentrations higher than the MIC given in Table 2 are used in the growth inhibition and mutagenesis assays. […]
E. coli. Growth of E. coli in LB medium over 24 hours (Optical Density (OD) 600 nm) after addition
of APIM-peptide variants 1-5 (60 µg/mL) at time t=0 (see Table 2). Negative (-) control is no
bacteria added, positive (+) control is untreated bacteria.
highest inhibition of growth.
control (black filled line).

HEK293 cells = tested on: HEK293 cells
Method: HEK293 cells (6,000 cells/well) were seeded in 96-well microtiter plates. After 4 h, APIM-peptides (12–48 μg/ml) were added, and the cells were incubated without change of media for up to 4 days. Viability was measured using the 3-(4,5-dimethylthiazol-2-yl)-2,5-diphenyltetrazolium bromide (MTT) assay as described ([Gilljam et al., 2009]).
(1 picture or pasted object on this page, not shown here)

[6] = SO-PAE19-1 (multidrug resistant)

SMILES: CC1(C)S[C@@H]2[C@H](NC(=O)[C@H](N)c3ccccc3)C(=O)N2[C@H]1C(=O)O [Ampicillin, ampicillin]
increase in MIC relative to day 1 (E. coli K-12 MG1655): ≤ 64 × | MIC (E. coli [1]; MG1655, read-out: MIC in E. coli): 16 µg/mL (≈ 45.8 µM) | Combination effect with 0.5× MIC betatide (E. faecium; CCUG 59167 (vanA+), reduced MIC of antibiotic when combined with 0.5× MIC betatide): None | MIC (E. faecium; 24 h): 2050 µg/mL (≈ 5860 µM) | MIC (E. faecium; CCUG59167, 24 h): 1 µg/mL (≈ 2.86 µM) | Combination effect with 0.5× MIC betatide (E. faecium; SO-EFU19-1 (vanB+)): None

MIC (E. cloacae): > 1020 µg/mL | Combination effect with 0.5× MIC betatide (K. pneumoniae; ATCC 13883): Additive 2× | MIC (K. pneumoniae; 24 h): 2050 µg/mL (≈ 4500 µM) | MIC (K. pneumoniae; ATCC13883, 24 h): 0.13 µg/mL (≈ 0.285 µM) | Combination effect with 0.5× MIC betatide (K. pneumoniae; SO-KPN19-1 (ESBL-CARBA-D)): None
SMILES: CO/N=C(\C(=O)N[C@@H]1C(=O)N2C(C(=O)O)=C(COC(C)=O)CS[C@H]12)c1csc(N)n1 [Cefotaxime, cefotaxime]

SMILES: CC(C)(O/N=C(\C(=O)N[C@@H]1C(=O)N2C(C(=O)[O-])=C(C[n+]3ccccc3)CS[C@H]12)c1csc(N)n1)C(=O)O [Ceftazidime, ceftazidime]
MIC (E. cloacae): > 1000 µg/mL | Combination effect with 0.5× MIC betatide (P. aeruginosa; ATCC 27853): None | MIC (P. aeruginosa; 24 h): 128 µg/mL (≈ 234 µM) | MIC (P. aeruginosa; ATCC27853, 24 h): 2 µg/mL (≈ 3.66 µM) | Combination effect with 0.5× MIC betatide (P. aeruginosa; [6]): None

SMILES: CNC(C)C1CCC(N)C(OC2C(N)CC(N)C(OC3OCC(C)(O)C(NC)C3O)C2O)O1 (stereo not drawn) [Gentamicin, gentamicin]
MIC (S. aureus; ATCC29213, read-out: MIC in S. aureus ATCC 29213, ATCC 29213, values given in method text): 1 µg/mL (≈ 2.09 µM) | MIC (S. aureus; ATCC29213, read-out: MIC in S. aureus, starting MIC of resistance development assay, CAMHB, strain not differentiated (ATCC 29213 and SO-SAU19-1)): 1 µg/mL | MIC (E. coli [1]; 24 h): > 500 µg/mL | MIC (E. coli [1]; MG1655, 24 h): 0.5 µg/mL (≈ 1.05 µM) | Combination effect with 0.5× MIC betatide (E. coli [1]; MG1655): None | MIC (E. cloacae): > 1000 µg/mL | Combination effect with 0.5× MIC betatide (K. pneumoniae; ATCC 13883): Additive 4× | MIC (K. pneumoniae; 24 h): 64 µg/mL (≈ 134 µM) | MIC (K. pneumoniae; ATCC13883, 24 h): 0.5 µg/mL (≈ 1.05 µM) | Combination effect with 0.5× MIC betatide (K. pneumoniae; SO-KPN19-1 (ESBL-CARBA-D)): Additive 4× | Combination effect with 0.5× MIC betatide (P. aeruginosa; ATCC 27853): None | MIC (P. aeruginosa; 24 h): 16 µg/mL (≈ 33.5 µM) | MIC (P. aeruginosa; ATCC27853, 24 h): 2 µg/mL (≈ 4.19 µM) | Combination effect with 0.5× MIC betatide (P. aeruginosa; [6]): None | Combination effect with 0.5× MIC betatide (A. baumannii; ATCC 19606): None | MIC (A. baumannii; 24 h): > 1000 µg/mL | MIC (A. baumannii; ATCC19606, 24 h): 8 µg/mL (≈ 16.8 µM) | increase in MIC relative to day 1 ([2]; S. aureus ATCC 29213, serial passage, first experiment (parallel 1)): ≤ 256 × | increase in MIC relative to day 1 ([2]; S. aureus SO-SAU19-1 (MRSA), 20 passages): 8 ×

Combination effect with 0.5× MIC betatide (E. faecalis; ATCC 29212): None | MIC (E. faecalis; 24 h): 8 µg/mL (≈ 23.7 µM) | MIC (E. faecalis; ATCC29212, 24 h): 2 µg/mL (≈ 5.93 µM) | Combination effect with 0.5× MIC betatide (E. faecalis; SO-EFA19-1 (optrA+)): None
SMILES: CC(=O)NC[C@H]1CN(c2ccc(N3CCOCC3)c(F)c2)C(=O)O1 [Linezolid, linezolid]

SMILES: CC[C@H](C)[C@H](NC(=O)CNC(=O)[C@H](CCCCN)NC(=O)[C@@H](NC(=O)[C@H](CC(C)C)NC(=O)[C@H](Cc1c[nH]c2ccccc12)NC(=O)[C@H](CCCNC(=N)N)NC(=O)[C@H](CC(=O)O)NC(=O)[C@H](CCSC)NC(C)=O)C(C)C)C(=O)N[C@@H](CC(C)C)C(=O)N[C@@H](CCC(N)=O)C(=O)N[C@@H](Cc1c[nH]c2ccccc12)C(=O)N[C@@H](CCCNC(=N)N)C(=O)N[C@@H](CCCCN)C(=O)N[C@H](C(=O)N[C@@H](CCCNC(=N)N)C(=O)N[C@@H](CCCNC(=N)N)C(=O)N[C@@H](CCCNC(=N)N)C(=O)N[C@@H](CCCNC(=N)N)C(=O)N[C@@H](CCCNC(=N)N)C(=O)N[C@@H](CCCNC(=N)N)C(=O)N[C@@H](CCCNC(=N)N)C(=O)N[C@@H](CCCNC(=N)N)C(N)=O)[C@@H](C)CC [Peptide 5] (Ac-MDRWLVKGILQWRKIRRRRRRRR-NH2)
MIC E. coli (E. coli [1]; K-12 MG1655, CLSI broth microdilution, CAMHB, 37°C, 24 h, visible growth, net peptide concentration): 16 µg/mL (≈ 4.95 µM) | MIC S. epidermidis MRSE [3]: 16 µg/mL (≈ 4.95 µM) | UV-induced mutation frequencies relative to control (E. coli [4]; 20 μg/mL, UV-C 20 mJ/cm2, RifR assay, three independent experiments): significantly reduced | Reduction of mutation frequency E. coli (20 μg/ml) (E. coli [4]; 20 μg/ml peptide, UV-C 20 mJ/cm^2, RifR assay, relative to untreated control): ++ | Reduction of viability E. coli (60 μg/ml) (E. coli [5]): ++ | Reduction of viability HEK293 (24 μg/ml) (HEK293 cells): +
